Test results taken from PubChem BioAssay (NCI).
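Cultured in 96-well plates, cells were exposed to test compound for 48 hours across five concentrations. TGI: concentration producing complete growth inhibition.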

Legend:
Assay in all cases: growth of human tumour cells (NCI), 48 h
UACC-257 melanoma = test system: UACC-257 melanoma
NCI-H460 lung = test system: NCI-H460 lung
UACC-62 melanoma = test system: UACC-62 melanoma
SNB-19 CNS = test system: SNB-19 CNS
SF-268 CNS = test system: SF-268 CNS
HCT-15 colon = test system: HCT-15 colon
U251 CNS = test system: U251 CNS
DU-145 prostate = test system: DU-145 prostate
MDA-N = test system: MDA-N
SF-295 CNS = test system: SF-295 CNS
NCI-H522 lung = test system: NCI-H522 lung
HT29 colon = test system: HT29 colon
HOP-62 NSCLC = test system: HOP-62 NSCLC
HCC-2998 colon = test system: HCC-2998 colon
RXF 393 renal = test system: RXF 393 renal
A549 NSCLC = test system: A549 NSCLC
CCRF-CEM leukemia = test system: CCRF-CEM leukemia
NCI-H23 lung = test system: NCI-H23 lung
IGROV1 ovarian = test system: IGROV1 ovarian
NCI/ADR-RES ovarian = test system: NCI/ADR-RES ovarian
MCF7 breast = test system: MCF7 breast
EKVX NSCLC = test system: EKVX NSCLC
SN12C renal = test system: SN12C renal
SF-539 CNS = test system: SF-539 CNS
OVCAR-4 ovarian = test system: OVCAR-4 ovarian
T-47D breast = test system: T-47D breast
ACHN renal = test system: ACHN renal
HOP-92 NSCLC = test system: HOP-92 NSCLC
COLO 205 colon = test system: COLO 205 colon
HL-60(TB) leukemia = test system: HL-60(TB) leukemia
786-0 renal = test system: 786-0 renal
OVCAR-3 ovarian = test system: OVCAR-3 ovarian
RPMI-8226 leukemia = test system: RPMI-8226 leukemia
PC-3 prostate = test system: PC-3 prostate
BT-549 breast = test system: BT-549 breast
SK-MEL-5 melanoma = test system: SK-MEL-5 melanoma
MALME-3M melanoma = test system: MALME-3M melanoma
NCI-H226 lung = test system: NCI-H226 lung
MOLT-4 leukemia = test system: MOLT-4 leukemia
SW-620 colon = test system: SW-620 colon
UO-31 renal = test system: UO-31 renal
OVCAR-8 ovarian = test system: OVCAR-8 ovarian
SR leukemia = test system: SR leukemia
MDA-MB-435 = test system: MDA-MB-435
SK-OV-3 ovarian = test system: SK-OV-3 ovarian
HCT-116 colon = test system: HCT-116 colon
LOX IMVI melanoma = test system: LOX IMVI melanoma
HS 578T breast = test system: HS 578T breast
MDA-MB-231 breast = test system: MDA-MB-231 breast
KM12 colon = test system: KM12 colon
SK-MEL-28 melanoma = test system: SK-MEL-28 melanoma
CAKI-1 renal = test system: CAKI-1 renal
A498 renal = test system: A498 renal
SNB-75 CNS = test system: SNB-75 CNS
K-562 leukemia = test system: K-562 leukemia
OVCAR-5 ovarian = test system: OVCAR-5 ovarian
M14 melanoma = test system: M14 melanoma
SK-MEL-2 melanoma = test system: SK-MEL-2 melanoma
TK-10 renal = test system: TK-10 renal
SNB-78 CNS = test system: SNB-78 CNS
LXFL 529 NSCLC = test system: LXFL 529 NSCLC
DMS 114 small cell lung = test system: DMS 114 small cell lung
M19-MEL melanoma = test system: M19-MEL melanoma

In the case of `CC(=O)n1nc(-c2nc3ccccc3nc2Cl)cc1Cl`, the TGI (UACC-257 melanoma) was greater than 100 µM, the TGI (NCI-H460 lung) was greater than 88.2 µM and the TGI (UACC-62 melanoma) was greater than 100 µM. The TGI (SNB-19 CNS) was greater than 92 µM, the TGI (SF-268 CNS) was greater than 100 µM and the TGI (HCT-15 colon) was 57.3 µM. The TGI (U251 CNS) was greater than 77.6 µM, the TGI (DU-145 prostate) was 43.1 µM and the TGI (MDA-N) was 24.2 µM. For the same compound, the TGI (SF-295 CNS) was greater than 93.2 µM, the TGI (NCI-H522 lung) was 31.2 µM and the TGI (HT29 colon) was 51.9 µM. For the same compound, the TGI (HOP-62 NSCLC) was 73.8 µM, the TGI (HCC-2998 colon) was greater than 100 µM and the TGI (RXF 393 renal) was greater than 100 µM. It also gave a TGI (A549 NSCLC) greater than 88.5 µM, a TGI (CCRF-CEM leukemia) of 7.73 µM and a TGI (NCI-H23 lung) of 49.6 µM. For the same compound, the TGI (IGROV1 ovarian) was greater than 100 µM, the TGI (NCI/ADR-RES ovarian) was 55.8 µM and the TGI (MCF7 breast) was greater than 82.6 µM. The TGI (EKVX NSCLC) was 37.7 µM, the TGI (SN12C renal) was greater than 65.9 µM and the TGI (SF-539 CNS) was 10.1 µM. It also gave a TGI (OVCAR-4 ovarian) of 53.3 µM, a TGI (T-47D breast) greater than 100 µM and a TGI (ACHN renal) of 28.5 µM. The TGI (HOP-92 NSCLC) was greater than 100 µM, the TGI (COLO 205 colon) was 33.2 µM and the TGI (HL-60(TB) leukemia) was 35 µM. It also gave a TGI (786-0 renal) of 78.8 µM, a TGI (OVCAR-3 ovarian) of 68.2 µM and a TGI (RPMI-8226 leukemia) greater than 100 µM. It also gave a TGI (PC-3 prostate) greater than 100 µM, a TGI (BT-549 breast) of 28.8 µM and a TGI (SK-MEL-5 melanoma) of 16.1 µM. It also gave a TGI (MALME-3M melanoma) greater than 78.7 µM, a TGI (NCI-H226 lung) of 30.8 µM and a TGI (MOLT-4 leukemia) of 14.3 µM. It also gave a TGI (SW-620 colon) greater than 100 µM, a TGI (UO-31 renal) of 4.79 µM and a TGI (OVCAR-8 ovarian) of 67.1 µM. The TGI (SR leukemia) was 13.3 µM, the TGI (MDA-MB-435) was 19 µM and the TGI (SK-OV-3 ovarian) was greater than 77.7 µM. It also gave a TGI (HCT-116 colon) of 25.4 µM, a TGI (LOX IMVI melanoma) of 33.3 µM and a TGI (HS 578T breast) greater than 91.7 µM. For the same compound, the TGI (MDA-MB-231 breast) was greater than 100 µM, the TGI (KM12 colon) was 48.5 µM and the TGI (SK-MEL-28 melanoma) was greater than 86.3 µM. For the same compound, the TGI (CAKI-1 renal) was 21.6 µM, the TGI (A498 renal) was greater than 100 µM and the TGI (SNB-75 CNS) was 76.6 µM. The TGI (K-562 leukemia) was greater than 53.2 µM, the TGI (OVCAR-5 ovarian) was greater than 92.3 µM and the TGI (M14 melanoma) was 19.4 µM. For the same compound, the TGI (SK-MEL-2 melanoma) was greater than 100 µM and the TGI (TK-10 renal) was greater than 100 µM.
`CCN(CC)CCN=Cc1c(O)c(O)c(C(C)C)c2cc(C)c(-c3c(C)cc4c(C(C)C)c(O)c(O)c(C=NCCN(CC)CC)c4c3O)c(O)c12` gave a TGI (UACC-257 melanoma) of 18.8 µM, a TGI (NCI-H460 lung) of 13.7 µM and a TGI (UACC-62 melanoma) of 6.03 µM. For the same compound, the TGI (SNB-19 CNS) was 8.86 µM, the TGI (SF-268 CNS) was 34.6 µM and the TGI (SF-295 CNS) was 4.45 µM. For the same compound, the TGI (NCI-H522 lung) was 3.4 µM, the TGI (HT29 colon) was 3.83 µM and the TGI (HOP-62 NSCLC) was 8.13 µM. The TGI (HCC-2998 colon) was 9.62 µM, the TGI (RXF 393 renal) was 5.31 µM and the TGI (CCRF-CEM leukemia) was 1.45 µM. It also gave a TGI (NCI-H23 lung) of 8.04 µM, a TGI (IGROV1 ovarian) of 12.5 µM and a TGI (SNB-78 CNS) of 5.6 µM. For the same compound, the TGI (LXFL 529 NSCLC) was 3.11 µM, the TGI (SF-539 CNS) was 5.65 µM and the TGI (OVCAR-4 ovarian) was 10.1 µM. For the same compound, the TGI (ACHN renal) was 8.37 µM, the TGI (HOP-92 NSCLC) was 7.96 µM and the TGI (COLO 205 colon) was 14.5 µM. For the same compound, the TGI (DMS 114 small cell lung) was 3.76 µM, the TGI (OVCAR-3 ovarian) was 4.61 µM and the TGI (RPMI-8226 leukemia) was 6.16 µM. The TGI (M19-MEL melanoma) was 14.1 µM, the TGI (MALME-3M melanoma) was 17 µM and the TGI (MOLT-4 leukemia) was 4.36 µM. For the same compound, the TGI (UO-31 renal) was 8.8 µM, the TGI (SK-OV-3 ovarian) was 12.4 µM and the TGI (HCT-116 colon) was 6.02 µM. The TGI (KM12 colon) was 3.92 µM, the TGI (SK-MEL-28 melanoma) was 12.5 µM and the TGI (SNB-75 CNS) was 22.6 µM. It also gave a TGI (K-562 leukemia) of 3 µM, a TGI (M14 melanoma) of 4.06 µM and a TGI (SK-MEL-2 melanoma) of 5.17 µM.
